From PubChem BioAssay AID248 (DTP/NCI, 2004)
“And” between values parts separate entries of the source, which are not always exact repeats. Identical values can stand only once. Inconclusive results and toxic doses are left out. Rule as the data show it: active = T/C of 150% or more; inactive = T/C below 125%.

System: L1210 leukemia ip in BDF1 mice, survival T/C
Test: NCI In Vivo Anticancer Drug Screen. Data for tumor model L1210 Leukemia (intraperitoneal) in B6D2F1 (BDF1) mice
Conditions: endpoint: mean survival time, higher = longer survival
Summary of the method: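 Tumor was transplanted into mice, which were then dosed with test compound or vehicle alone. Survival was recorded for each group, and the treated figure was expressed relative to the control figure.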

[1] = dose: 100.0 mg/kg/injection, schedule: Q01DX001 (ip), vehicle: saline
[2] = dose: 200.0 mg/kg/injection, schedule: Q01DX001 (ip), vehicle: saline
[3] = dose: 400.0 mg/kg/injection, schedule: Q01DX001 (ip), vehicle: saline
[4] = dose: 50.0 mg/kg/injection, schedule: Q01DX001 (ip), vehicle: carboxymethylcellulose (CMC)
[5] = dose: 100.0 mg/kg/injection, schedule: Q01DX001 (ip), vehicle: carboxymethylcellulose (CMC)
[6] = dose: 100.0 mg/kg/injection, schedule: Q04DX002 (ip), vehicle: saline with Tween-80
[7] = dose: 200.0 mg/kg/injection, schedule: Q04DX002 (ip), vehicle: saline with Tween-80
[8] = dose: 400.0 mg/kg/injection, schedule: Q04DX002 (ip), vehicle: saline with Tween-80
[9] = dose: 100.0 mg/kg/injection, schedule: Q04DX003 (ip), vehicle: Klucel (hydroxypropylcellulose) (HPC)
[10] = dose: 200.0 mg/kg/injection, schedule: Q04DX003 (ip), vehicle: Klucel (hydroxypropylcellulose) (HPC)
[11] = dose: 400.0 mg/kg/injection, schedule: Q04DX003 (ip), vehicle: Klucel (hydroxypropylcellulose) (HPC)
[12] = dose: 100.0 mg/kg/injection, schedule: Q04DX003 (ip), vehicle: saline with Tween-80
[13] = dose: 50.0 mg/kg/injection, schedule: Q01DX009 (ip), vehicle: saline
[14] = dose: 100.0 mg/kg/injection, schedule: Q01DX009 (ip), vehicle: saline
[15] = dose: 100.0 mg/kg/injection, schedule: Q04DX003 (ip), vehicle: saline
[16] = dose: 200.0 mg/kg/injection, schedule: Q04DX003 (ip), vehicle: saline

Measured: T/C

ClC(Cl)c1nc2ccccc2[nH]1
inactive: dose: 25.0 mg/kg/injection, schedule: Q01DX001 (ip), vehicle: Klucel (hydroxypropylcellulose) (HPC) 94 % of control | dose: 50.0 mg/kg/injection, schedule: Q04DX003 (ip), vehicle: saline 97 % of control

Cc1c(-c2ccccc2)oc2c(C(=O)OCCN3CCCCC3)cccc2c1=O
inactive: [1] 102 % of control | [2] 102 % of control | [3] 96 % of control

Cc1ccc(N=Nc2c(O)ccc3ccccc23)cc1
inactive: [4] 91 % of control | [5] 91 % of control | dose: 200.0 mg/kg/injection, schedule: Q01DX001 (ip), vehicle: carboxymethylcellulose (CMC) 91 % of control | dose: 400.0 mg/kg/injection, schedule: Q01DX001 (ip), vehicle: carboxymethylcellulose (CMC) 91 % of control

CC(C)=CCCC(C)CCOc1ccc(C(C)C)cc1 (configuration not stated)
inactive: [6] 108 % of control | [7] 96 % of control | [8] 103 % of control

O=C(/C=C/c1ccccc1)OCc1ccccc1CN1CCCCC1
inactive: dose: 100.0 mg/kg/injection, schedule: Q04DX002 (ip), vehicle: Klucel (hydroxypropylcellulose) (HPC) 104 % of control | dose: 200.0 mg/kg/injection, schedule: Q04DX002 (ip), vehicle: Klucel (hydroxypropylcellulose) (HPC) 96 % of control | dose: 400.0 mg/kg/injection, schedule: Q04DX002 (ip), vehicle: Klucel (hydroxypropylcellulose) (HPC) 86 % of control

CCCC(C)(CC)C(=O)O (configuration not stated)
inactive: dose: 75.0 mg/kg/injection, schedule: Q01DX001 (ip), vehicle: acetone 108 % of control | dose: 150.0 mg/kg/injection, schedule: Q01DX001 (ip), vehicle: acetone 101 % of control | dose: 300.0 mg/kg/injection, schedule: Q01DX001 (ip), vehicle: acetone 98 % of control

O=S1(=O)CCCCc2c1ccc1ccccc21
inactive: [1] 101 % of control | [2] 90 % of control | [3] 106 % of control

CC(=O)OCC1OC(n2c(Br)nc3c(N)ncnc32)C2OC(C)(C)OC12 (configuration not stated)
inactive: dose: 25.0 mg/kg/injection, schedule: Q01DX001 (ip), vehicle: carboxymethylcellulose (CMC) 95 % of control | [4] 100 % of control | [5] 93 % of control

O=c1[nH]cnc2nc(-c3cccc([N+](=O)[O-])c3)[nH]c12
inactive: dose: 100.0 mg/kg/injection, schedule: Q04DX003 (ip), vehicle: gum acacia 102 % of control | dose: 200.0 mg/kg/injection, schedule: Q04DX003 (ip), vehicle: gum acacia 92 % of control | dose: 400.0 mg/kg/injection, schedule: Q04DX003 (ip), vehicle: gum acacia 96 % of control

S=P(c1ccccc1)(c1ccccc1)C(P(c1ccccc1)c1ccccc1)P(c1ccccc1)c1ccccc1
inactive: [6] 97 % of control | [7] 100 % of control | [8] 97 % of control

CC(=O)c1c(C)c(C)cc(C)c1C
inactive: dose: 100.0 mg/kg/injection, schedule: Q01DX009 (ip), vehicle: Klucel (hydroxypropylcellulose) (HPC) 110 % of control | [9] 96 % of control | dose: 200.0 mg/kg/injection, schedule: Q01DX009 (ip), vehicle: Klucel (hydroxypropylcellulose) (HPC) 97 % of control | [10] 103 % of control | dose: 400.0 mg/kg/injection, schedule: Q01DX009 (ip), vehicle: Klucel (hydroxypropylcellulose) (HPC) 111 % of control | [11] 103 % of control

CC(CO)(CO)C1CCCCC1
inactive: dose: 25.0 mg/kg/injection, schedule: Q04DX002 (ip), vehicle: saline with Tween-80 93 % of control | dose: 50.0 mg/kg/injection, schedule: Q04DX002 (ip), vehicle: saline with Tween-80 101 % of control | [6] 97 % of control

O=C(COc1ccc(Cl)cc1C(=O)O)Nc1ccccc1
inactive: [9] 93 % of control | [10] 102 % of control | [11] 98 % of control

CC(C)=CCC1=C(O)C2=C(CCCC2)C(=O)C1=O
inactive: dose: 100.0 mg/kg/injection, schedule: Q01DX001 (ip), vehicle: water 102 % of control | dose: 200.0 mg/kg/injection, schedule: Q01DX001 (ip), vehicle: water 106 % of control | dose: 400.0 mg/kg/injection, schedule: Q01DX001 (ip), vehicle: water 93 % of control

CN(C)C(=O)Sc1ccc([N+](=O)[O-])cc1
inactive: [12] 105 % of control | dose: 200.0 mg/kg/injection, schedule: Q04DX003 (ip), vehicle: saline with Tween-80 111 % of control | dose: 400.0 mg/kg/injection, schedule: Q04DX003 (ip), vehicle: saline with Tween-80 104 % of control

Cc1cc(N)c2cc(NC(=O)CCCCCCCCC(=O)Nc3ccc4nc(C)cc(N)c4c3)ccc2n1
inactive: dose: 8.9 mg/kg/injection, schedule: Q01DX Z (ip), vehicle: saline 103 % of control and 114 % of control | dose: 12.0 mg/kg/injection, schedule: Q01DX Z (ip), vehicle: methylcellulose (MC) 96 % of control | dose: 12.0 mg/kg/injection, schedule: Q01DX Z (ip), vehicle: saline 121 % of control | dose: 13.3 mg/kg/injection, schedule: Q01DX Z (ip), vehicle: carboxymethylcellulose (CMC) 114 % of control | dose: 13.3 mg/kg/injection, schedule: Q01DX Z (ip), vehicle: saline 111 % of control | dose: 18.0 mg/kg/injection, schedule: Q01DX Z (ip), vehicle: methylcellulose (MC) 100 % of control | dose: 18.0 mg/kg/injection, schedule: Q01DX Z (ip), vehicle: saline 119 % of control | dose: 20.0 mg/kg/injection, schedule: Q01DX Z (ip), vehicle: carboxymethylcellulose (CMC) 112 % of control | dose: 20.0 mg/kg/injection, schedule: Q01DX Z (ip), vehicle: saline 114 % of control and 122 % of control | dose: 27.0 mg/kg/injection, schedule: Q01DX Z (ip), vehicle: methylcellulose (MC) 96 % of control | dose: 27.0 mg/kg/injection, schedule: Q01DX Z (ip), vehicle: saline 123 % of control | dose: 30.0 mg/kg/injection, schedule: Q01DX Z (ip), vehicle: carboxymethylcellulose (CMC) 108 % of control | dose: 30.0 mg/kg/injection, schedule: Q01DX Z (ip), vehicle: saline 115 % of control | dose: 40.0 mg/kg/injection, schedule: Q01DX Z (ip), vehicle: methylcellulose (MC) 96 % of control | dose: 40.0 mg/kg/injection, schedule: Q01DX Z (ip), vehicle: saline 121 % of control | dose: 50.0 mg/kg/injection, schedule: Q01DX001 (ip), vehicle: saline 106 % of control | dose: 90.0 mg/kg/injection, schedule: Q01DX Z (ip), vehicle: methylcellulose (MC) 107 % of control | dose: 90.0 mg/kg/injection, schedule: Q01DX Z (ip), vehicle: saline 113 % of control and 121 % of control and 86 % of control | [1] 120 % of control | dose: 100.0 mg/kg/injection, schedule: Q04DX003 (ip), vehicle: carboxymethylcellulose (CMC) 121 % of control | dose: 135.0 mg/kg/injection, schedule: Q01DX Z (ip), vehicle: methylcellulose (MC) 93 % of control | [2] 112 % of control | dose: 200.0 mg/kg/injection, schedule: Q04DX003 (ip), vehicle: carboxymethylcellulose (CMC) 117 % of control | dose: 400.0 mg/kg/injection, schedule: Q04DX003 (ip), vehicle: carboxymethylcellulose (CMC) 116 % of control

CCOC(=O)c1cc2c3n(c1=O)CCCC3C(c1ccncc1)OC2=O (configuration not stated)
inactive: dose: 75.0 mg/kg/injection, schedule: Q04DX003 (ip), vehicle: saline 95 % of control | dose: 150.0 mg/kg/injection, schedule: Q04DX003 (ip), vehicle: saline 100 % of control | dose: 300.0 mg/kg/injection, schedule: Q04DX003 (ip), vehicle: saline 95 % of control

CC(CN)N(C)C (configuration not stated)
inactive: [13] 89 % of control | [14] 95 % of control | [15] 93 % of control | dose: 200.0 mg/kg/injection, schedule: Q01DX009 (ip), vehicle: saline 89 % of control | [16] 97 % of control

S=C=Nc1ccc(Cl)cc1
inactive: dose: 25.0 mg/kg/injection, schedule: Q04DX003 (ip), vehicle: saline with Tween-80 107 % of control | dose: 50.0 mg/kg/injection, schedule: Q04DX003 (ip), vehicle: saline with Tween-80 96 % of control | [12] 95 % of control and 101 % of control

CC(C)NNCCO
inactive: [13] 98 % of control | [14] 103 % of control | [15] 89 % of control | [16] 95 % of control
